Measurements taken from PMC8704606, “The Artemiside-Artemisox-Artemisone-M1 Tetrad: Efficacies against Blood Stage P. falciparum Parasites, DMPK Properties, and the Case for Artemiside” (Pharmaceutics, 2021).
Where two headings read alike, the source gives them in different places.

How the values were obtained:
[1] = test system: fetal rat brain stem cells; conditions: ref S4 (24), cited from earlier work; for Viability NOEC: neuron-specific enolase activity, 7 days exposure
[2] = parameters: method as in PMID 34097488; conditions: cited from earlier work
[3] = test system: TM91-C235 (CQ and MFQ resistant); parameters: method as in ref S2; conditions: [3H]-hypoxanthine assay; ref S2; read-out: Antimalarial activities IC50 TM91-C235; cited from earlier work
D6 (CQ sensitive) = test system: D6 (CQ sensitive); parameters: method as in ref S2; conditions: [3H]-hypoxanthine assay; ref S2; read-out: Antimalarial activities IC50 D6; cited from earlier work
7G8 (CQ resistant) = test system: 7G8 (CQ resistant); parameters: method as in ref S2; conditions: [3H]-hypoxanthine assay; ref S2; read-out: Antimalarial activities IC50 7G8; cited from earlier work
[4] = test system: asexual blood stages of Pf W2 (drug resistant); test: SYBR Green I proliferation assay, asexual blood stages, Pf W2; format: cell-based, Plasmodium falciparum
Procedure: (§1) Dose response curves are in Figures S1a–c and S2a–c in the Supplementary Material 1. Table 1 also includes the historical values for artemiside and artemisone obtained using the same assay.
(§2) All other assay conditions are as previously described. Compound working solutions were prepared from a 10 mM stock solution in 100% (vol/vol) dimethyl sulfoxide (DMSO, Sigma-Aldrich) in supplemented RPMI 1640 medium containing AlbuMAX II with a final DMSO concentration of 0.1% (vol/vol), previously determined to be nontoxic to blood stage asexual parasites and gametocytes. The dose-responses of the amino-artemisinins were assayed using a 2-fold serial drug dilution on in vitro 95% ring-stage parasites at 37 °C under 90% N2, 5% CO2, and 5% O2 atmospheric conditions, detecting SYBR green I fluorescence as the proliferative marker following a 96 h drug treatment (1% parasitemia and 1% hematocrit) using a GloMaxR-Multi+ Detection System (Promega). No drug washout steps were performed during drug incubation periods prior to the assays. Activity against the Pf drug-sensitive NF54 strain and the drug-resistant K1 (resistant to CQ, quinine, pyrimethamine, and cycloguanil) and W2 (resistant to CQ, quinine, pyrimethamine, and cycloguanil) strains was evaluated. Data analysis was performed using GraphPad Prism (version 6), intra-assay variability was monitored with Z-factors, and acceptable interassay reproducibility was determined from the percent coefficient of variation (CV).

[5] = test system: asexual blood stages of Pf NF54 (drug sensitive); test: SYBR Green I proliferation assay, asexual blood stages, Pf NF54; format: cell-based, Plasmodium falciparum
Procedure: as §1, §2

[6] = test system: early-stage (EG) Pf NF54 gametocytes; test: Luciferase assay, early-stage gametocytes; format: cell-based, Plasmodium falciparum; conditions: early-stage gametocytes >95% stages II-III, 48 h incubation, ± SEM
Procedure: For screening artemisox and M1 against early- (EG) and late-stage (LG) gametocytes, the luciferase assay with transgenic NF54-pfs16-GFP-Luc and NF54-Mal8p1.16-GFP-Luc parasite lines was used. With this assay, stage-specificity of gametocytocidal action was established (Table 2). Dose-response curves are in Figures S1d,e and S2d in the Supplementary Material 1. […] As was observed previously for artemisone and artemiside, dose responses for artemisox and M1 could not be obtained at 48 h against late-stage gametocytes.
The same reference compounds with the exception of CQ were used for the early- and late-stage gametocyte assays. Gametocytocidal activity was determined using the transgenic NF54-pfs16-GFP-Luc and NF54-Mal8p1.16-GFP-Luc reporter lines. Compounds were initially screened for activity at a fixed drug concentration of 1 µM, with dose responses subsequently determined using 2-fold serial drug dilutions for 48 h against early-stage gametocytes (day 5 post-induction population, ≥95% stages II–III) and 10-fold serial drug dilutions for 48 h or 72 h against late-stage gametocytes (day 10 post-induction population, ≥90% late-stage [stages IV–V]) (2 to 3% gametocytemia, 2% hematocrit) at 37 °C under 90% N2, 5% CO2, and 5% O2 [6]. No drug washout steps were performed during the drug incubation periods prior to the assays. In all cases, an interference assay was run in parallel to eliminate the possibility of false positives arising through compound interference with the luciferase readout.

[7] = ATP levels 1 day after initial administration

C[C@H]1[C@H](N2CCSCC2)O[C@@H]2O[C@@]3(C)CC[C@H]4[C@H](C)CC[C@@H]1[C@@]24OO3 [Artemiside 5, Artemiside]
ATP IC50 [1, 7]: 8.5 µg/mL
ATP NOEC [1, 7]: 1.0 µg/mL
ATP NOEC ([1]; ATP levels 1 day after initial administration, listed as artemiside): 1 µg/mL
Viability NOEC [1]: 1.0 µg/mL
Viability NOEC ([1]; listed as artemiside): 1 µg/mL
F% (oral bioavailability) [2]: 1%

C[C@H]1[C@H](N2CCS(=O)(=O)CC2)O[C@@H]2O[C@@]3(C)CC[C@H]4[C@H](C)CC[C@@H]1[C@@]24OO3 [Artemisone 7, Artemisone]
IC50 [3]: 1.1 ± 0.5 nM
IC50 (D6 (CQ sensitive)): 1 ± 0.4 nM
IC50 (7G8 (CQ resistant)): 0.8 ± 0.1 nM

C[C@H]1[C@H](N2CC[S+]([O-])CC2)O[C@@H]2O[C@@]3(C)CC[C@H]4[C@H](C)CC[C@@H]1[C@@]24OO3 [Artemisox 6, Artemisox]
RI = IC50 W2/IC50 NF54 [4]: 0.7
IC50 ([4]; Plasmodium falciparum, asexual blood stage Pf W2, multidrug resistant, SYBR Green I, 96 h, ± SEM): 1.5 ± 0.4 nM
IC50 ([5]; Plasmodium falciparum, NF54, 96 h, asexual blood stage Pf NF54, CQ sensitive, SYBR Green I, 96 h, ± SEM, read-out: IC50 NF54): 1.95 ± 0.25 nM
IC50 ([5]; Plasmodium falciparum, NF54, summary over NF54, K1 and W2 strains, read-out: IC50 against asexual Pf blood stage parasites): ~2 nM
IC50 ([5]; summary over NF54, K1 and W2 strains, read-out: IC50 against asexual Pf blood stage parasites): 1.5 to 2.6 nM
IC50 ([6]; Plasmodium falciparum, NF54, 48 h): 18.9 nM
IC50 [6]: 18.9 ± 0.98 nM
